Data set [1] in a line: activity coefficient (dimensionless); of the first substance listed, at infinite dilution; xn = mol fraction of the nth substance listed. The note with it: Liquid, x1 = 0.
The conditions of data set [2]: Liquid, Ebulliometric method (Recirculating still).
Setting [3] is: 333.15 K, 100 kPa, Rayleigh distillation.
The mark [4] stands for this setting: 303.15 K, 100 kPa, Rayleigh distillation.
The mark [5] stands for this setting: 313.15 K, 100 kPa, Rayleigh distillation.
Setting [6] is: 323.15 K, 100 kPa, Rayleigh distillation.
The mark [7] stands for this setting: 293.15 K, 46.85 kPa, comparative ebulliometry.
Setting [8] is: 303.15 K, 69.6 kPa, comparative ebulliometry.
The mark [9] stands for this setting: 311.15 K, 93.62 kPa, comparative ebulliometry.

One may read the vapor or sublimation pressure as the pressure of vapour in equilibrium with the condensed phase.

Numbers after ± are expanded uncertainties.

As to `CCCCO` [butan-1-ol] + ClCCl, the activity coefficient in data set [1] (293.15 K, 100 kPa, differential distillation) was determined as 7.68 ± 0.65; in data set [1] (303.15 K, 100 kPa, differential distillation) it was 6.18 ± 0.51; in data set [1] (311.15 K, 100 kPa, differential distillation) it was 5.43 ± 0.57.

As to `ClCCl` [dichloromethane], the “vapor or sublimation pressure” value in data set [2] (285.89 K) is recorded as 34.66 ± 0.065 kPa; in data set [2] (287.58 K), 37.33 ± 0.068 kPa; in data set [2] (289.94 K), 41.33 ± 0.073 kPa; in data set [2] (292.12 K) it was 45.33 ± 0.078 kPa; in data set [2] (294.15 K), 49.33 ± 0.083 kPa; in data set [2] (296.05 K) it was 53.33 ± 0.09 kPa. The “vapor or sublimation pressure” value in data set [2] (298.41 K) turned out to be 58.66 ± 0.095 kPa; in data set [2] (300.61 K), 63.99 ± 0.1 kPa; in data set [2] (302.67 K) it was 69.33 ± 0.11 kPa; in data set [2] (304.61 K), 74.66 ± 0.12 kPa; in data set [2] (306.43 K), 79.99 ± 0.12 kPa; in data set [2] (308.17 K), 85.33 ± 0.13 kPa. Also, the entries for the “vapor or sublimation pressure” value in data set [2] (309.82 K) and in data set [2] (311.39 K) were 90.66 ± 0.13 kPa and 95.99 ± 0.14 kPa, respectively.

Consider `ClCCl` [dichloromethane] + CCCCO, for which the activity coefficient came to 1.85 ± 0.1 in data set [1] (283.15 K, 100 kPa, inert gas stripping); 1.86 ± 0.11 in data set [1] (293.15 K, 100 kPa, inert gas stripping); 1.86 ± 0.11 in data set [1] (303.15 K, 100 kPa, inert gas stripping); 1.86 ± 0.11 in data set [1] (313.15 K, 100 kPa, inert gas stripping); 1.83 ± 0.1 in data set [1] (323.15 K, 100 kPa, inert gas stripping); 1.76 ± 0.1 in data set [1] (333.15 K, 100 kPa, inert gas stripping).

For the molecule `ClCCl` [dichloromethane] + CCCO, the activity coefficient in data set [1] (283.15 K, 100 kPa, Inert gas stripping) was determined as 1.99 ± 0.12; in data set [1] (293.15 K, 100 kPa, Inert gas stripping), 2 ± 0.16; in data set [1] (303.15 K, 100 kPa, Inert gas stripping), 2.02 ± 0.16; in data set [1] (313.15 K, 100 kPa, Inert gas stripping), 2.05 ± 0.16; in data set [1] (323.15 K, 100 kPa, Inert gas stripping), 2.04 ± 0.16; in data set [1] (333.15 K, 100 kPa, Inert gas stripping), 2.02 ± 0.16. Besides, the activity coefficient in data set [1] (setting [3]) came to 2.06 ± 0.16.

Take `ClCCl` [dichloromethane] + CCO: the activity coefficient in data set [1] (setting [4]) turned out to be 2.29 ± 0.18; in data set [1] (setting [5]), 2.3 ± 0.18; in data set [1] (setting [6]), 2.29 ± 0.18; in data set [1] (setting [3]), 2.27 ± 0.18; in data set [1] (343.15 K, 100 kPa, Rayleigh distillation) it was 2.18 ± 0.25.

Regarding `ClCCl` [dichloromethane] + CO, the activity coefficient in data set [1] (293.15 K, 100 kPa, Rayleigh distillation) stood at 2.84 ± 0.24; in data set [1] (setting [4]), 2.87 ± 0.23; in data set [1] (setting [5]), 2.87 ± 0.23; in data set [1] (setting [6]), 2.83 ± 0.23; in data set [1] (setting [3]), 2.81 ± 0.22.

As for `CCO` [ethanol] + ClCCl, the activity coefficient in data set [1] (setting [7]) was found to be 9.56 ± 0.78; in data set [1] (setting [8]) it was 7.98 ± 0.65; in data set [1] (setting [9]), 7.09 ± 0.58.

On to `CO` [methanol] + ClCCl, for which the values for the activity coefficient in data set [1] (setting [7]), in data set [1] (setting [8]) and in data set [1] (setting [9]) were 13.4 ± 1.3, 11.6 ± 1.1 and 9.86 ± 0.89, respectively.

In the case of `CCCO` [propan-1-ol] + ClCCl, the activity coefficient came to 8.38 ± 0.7 in data set [1] (setting [7]), 6.99 ± 0.61 in data set [1] (setting [8]) and 5.98 ± 0.51 in data set [1] (setting [9]).

Values taken from the NIST ThermoML archive (doi:10.1016/j.fluid.2015.11.037).
